Experimental data from ChEMBL document CHEMBL1152783, “Octahydrophenanthrene-2,7-diol analogues as dissociated glucocorticoid receptor agonists: discovery and lead exploration” (J Med Chem, 2009).
pIC50: −log10 of the molar value.

How the values were obtained:
Glucocorticoid receptor [1] = molecular target: T1, Glucocorticoid receptor (Homo sapiens, UniProt P04150); test: Binding affinity to human glucocorticoid receptor
T1 sequence (P04150 whole entry): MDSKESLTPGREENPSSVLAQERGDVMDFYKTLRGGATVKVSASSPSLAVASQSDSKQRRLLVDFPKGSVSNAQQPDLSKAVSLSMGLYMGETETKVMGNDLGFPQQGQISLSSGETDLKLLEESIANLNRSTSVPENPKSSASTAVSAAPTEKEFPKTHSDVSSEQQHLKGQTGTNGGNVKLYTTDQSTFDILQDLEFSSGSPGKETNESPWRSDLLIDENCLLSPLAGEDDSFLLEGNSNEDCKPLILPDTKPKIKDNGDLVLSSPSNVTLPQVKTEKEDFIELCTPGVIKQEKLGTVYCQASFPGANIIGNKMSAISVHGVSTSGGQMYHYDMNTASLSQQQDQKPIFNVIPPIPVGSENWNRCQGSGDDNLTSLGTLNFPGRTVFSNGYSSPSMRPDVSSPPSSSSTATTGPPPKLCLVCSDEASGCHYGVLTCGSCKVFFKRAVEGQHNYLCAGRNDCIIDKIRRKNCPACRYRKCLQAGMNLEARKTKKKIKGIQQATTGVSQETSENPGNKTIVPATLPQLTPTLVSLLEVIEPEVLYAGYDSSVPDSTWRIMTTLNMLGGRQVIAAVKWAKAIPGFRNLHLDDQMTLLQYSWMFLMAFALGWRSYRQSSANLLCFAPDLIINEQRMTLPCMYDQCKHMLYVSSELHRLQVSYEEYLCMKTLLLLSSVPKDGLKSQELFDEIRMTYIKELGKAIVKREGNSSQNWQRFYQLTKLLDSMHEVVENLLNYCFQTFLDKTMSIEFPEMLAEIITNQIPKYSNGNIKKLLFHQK

Estrogen receptor = molecular target: T2, Estrogen receptor (Homo sapiens, UniProt P03372); test: Binding affinity to human ERalpha
T2 sequence (P03372 whole entry): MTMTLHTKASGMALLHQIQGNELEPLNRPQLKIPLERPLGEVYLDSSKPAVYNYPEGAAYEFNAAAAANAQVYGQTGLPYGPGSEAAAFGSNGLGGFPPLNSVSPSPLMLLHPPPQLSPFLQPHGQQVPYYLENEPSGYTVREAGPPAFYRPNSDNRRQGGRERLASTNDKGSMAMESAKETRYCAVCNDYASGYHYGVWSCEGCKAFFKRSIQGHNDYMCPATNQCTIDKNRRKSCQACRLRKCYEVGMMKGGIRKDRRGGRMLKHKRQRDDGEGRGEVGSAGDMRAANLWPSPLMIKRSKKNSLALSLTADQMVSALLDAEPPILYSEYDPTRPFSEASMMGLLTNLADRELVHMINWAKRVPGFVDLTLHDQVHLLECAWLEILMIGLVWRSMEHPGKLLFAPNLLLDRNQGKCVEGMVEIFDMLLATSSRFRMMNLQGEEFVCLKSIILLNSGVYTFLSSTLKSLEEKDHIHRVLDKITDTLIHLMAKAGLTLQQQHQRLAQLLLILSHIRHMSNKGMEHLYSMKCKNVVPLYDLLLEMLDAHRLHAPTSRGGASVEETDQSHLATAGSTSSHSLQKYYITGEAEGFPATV

Estrogen receptor beta = Estrogen receptor beta (Homo sapiens, UniProt Q92731); test: Binding affinity to human ERbeta
Androgen receptor = molecular target: T3, Androgen receptor (Homo sapiens, UniProt P10275); test: Binding affinity to human androgen receptor
T3 sequence (P10275 whole entry): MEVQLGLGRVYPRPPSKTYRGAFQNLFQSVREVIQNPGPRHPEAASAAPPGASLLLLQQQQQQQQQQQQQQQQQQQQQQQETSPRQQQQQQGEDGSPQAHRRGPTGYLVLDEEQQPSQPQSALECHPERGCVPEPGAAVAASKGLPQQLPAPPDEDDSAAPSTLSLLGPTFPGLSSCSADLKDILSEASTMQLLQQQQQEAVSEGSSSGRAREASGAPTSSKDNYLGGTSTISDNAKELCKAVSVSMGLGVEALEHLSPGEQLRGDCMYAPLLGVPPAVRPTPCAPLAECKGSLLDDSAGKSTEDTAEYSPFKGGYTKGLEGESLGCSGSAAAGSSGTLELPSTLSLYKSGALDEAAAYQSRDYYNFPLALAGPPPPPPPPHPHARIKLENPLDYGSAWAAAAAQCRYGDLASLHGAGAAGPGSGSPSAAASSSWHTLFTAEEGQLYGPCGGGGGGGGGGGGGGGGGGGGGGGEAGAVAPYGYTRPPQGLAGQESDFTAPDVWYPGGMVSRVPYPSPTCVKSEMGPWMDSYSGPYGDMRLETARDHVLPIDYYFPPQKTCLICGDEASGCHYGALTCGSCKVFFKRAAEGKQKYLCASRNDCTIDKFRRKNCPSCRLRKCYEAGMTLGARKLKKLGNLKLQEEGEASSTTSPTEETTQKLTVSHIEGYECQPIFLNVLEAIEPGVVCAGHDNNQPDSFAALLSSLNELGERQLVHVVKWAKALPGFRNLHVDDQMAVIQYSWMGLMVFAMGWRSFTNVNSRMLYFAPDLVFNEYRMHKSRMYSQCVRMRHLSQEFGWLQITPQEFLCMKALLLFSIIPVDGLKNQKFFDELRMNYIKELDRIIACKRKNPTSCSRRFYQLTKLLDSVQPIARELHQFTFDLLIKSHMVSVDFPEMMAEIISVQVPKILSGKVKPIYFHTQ

Progesterone receptor = molecular target: T4, Progesterone receptor (Homo sapiens, UniProt P06401); test: Binding affinity to human progesterone receptor
T4 sequence (P06401 whole entry): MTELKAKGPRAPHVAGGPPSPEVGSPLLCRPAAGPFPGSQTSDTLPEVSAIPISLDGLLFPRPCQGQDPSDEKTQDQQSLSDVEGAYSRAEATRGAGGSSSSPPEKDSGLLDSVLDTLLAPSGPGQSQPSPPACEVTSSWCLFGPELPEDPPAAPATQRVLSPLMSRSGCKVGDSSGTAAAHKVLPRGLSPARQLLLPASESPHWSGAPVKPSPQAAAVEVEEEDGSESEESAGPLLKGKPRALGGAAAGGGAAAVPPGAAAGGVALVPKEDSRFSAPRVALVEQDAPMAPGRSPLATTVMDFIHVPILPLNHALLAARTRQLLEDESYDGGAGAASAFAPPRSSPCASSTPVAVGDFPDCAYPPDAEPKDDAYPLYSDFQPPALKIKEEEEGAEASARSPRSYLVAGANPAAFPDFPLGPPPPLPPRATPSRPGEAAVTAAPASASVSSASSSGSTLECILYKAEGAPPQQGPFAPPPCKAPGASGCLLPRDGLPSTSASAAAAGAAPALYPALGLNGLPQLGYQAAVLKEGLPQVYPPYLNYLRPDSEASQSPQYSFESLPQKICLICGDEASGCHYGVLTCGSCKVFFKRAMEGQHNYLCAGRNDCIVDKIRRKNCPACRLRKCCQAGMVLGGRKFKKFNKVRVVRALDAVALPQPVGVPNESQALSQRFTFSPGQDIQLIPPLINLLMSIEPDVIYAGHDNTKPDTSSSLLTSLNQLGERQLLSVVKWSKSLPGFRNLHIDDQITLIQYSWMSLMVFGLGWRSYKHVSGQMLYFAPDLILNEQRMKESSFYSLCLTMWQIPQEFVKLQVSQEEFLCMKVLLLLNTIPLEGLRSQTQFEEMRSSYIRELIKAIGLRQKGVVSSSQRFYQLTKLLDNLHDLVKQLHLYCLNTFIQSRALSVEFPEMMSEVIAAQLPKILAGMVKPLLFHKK

Glucocorticoid receptor [2] = molecular target: T1, Glucocorticoid receptor; test: Transrepression activity at GR in human SW1353 cells assessed as inhibition of IL1-stimulated MMP13 production after 24 hrs by whole cell ELISA; format: cell-based
Glucocorticoid receptor [3] = molecular target: T1, Glucocorticoid receptor; test: Transrepression activity at GR in human SW1353 cells assessed as suppression of NFkappaB-induced IL8 production; format: cell-based

Sequence of Estrogen receptor beta (Q92731 whole entry): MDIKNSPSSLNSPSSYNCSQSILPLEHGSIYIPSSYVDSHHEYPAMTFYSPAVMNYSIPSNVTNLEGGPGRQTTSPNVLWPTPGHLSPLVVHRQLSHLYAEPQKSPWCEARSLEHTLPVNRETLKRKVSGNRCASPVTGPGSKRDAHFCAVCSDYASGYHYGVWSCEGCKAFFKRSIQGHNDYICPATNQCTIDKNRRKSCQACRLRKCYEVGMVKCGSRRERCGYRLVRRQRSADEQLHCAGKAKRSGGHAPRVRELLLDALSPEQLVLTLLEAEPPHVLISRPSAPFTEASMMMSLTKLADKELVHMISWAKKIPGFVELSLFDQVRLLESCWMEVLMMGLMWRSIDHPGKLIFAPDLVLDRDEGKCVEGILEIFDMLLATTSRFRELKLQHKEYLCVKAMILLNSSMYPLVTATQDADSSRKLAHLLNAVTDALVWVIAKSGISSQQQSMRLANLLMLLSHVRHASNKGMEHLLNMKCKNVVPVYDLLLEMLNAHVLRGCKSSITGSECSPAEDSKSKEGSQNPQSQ

Row | SMILES | pIC50 (Glucocorticoid receptor [1]) | pIC50 (Estrogen receptor) | pIC50 (Estrogen receptor beta) | pIC50 (Androgen receptor) | pIC50 (Progesterone receptor) | pIC50 (Glucocorticoid receptor [2]) | pIC50 (Glucocorticoid receptor [3])
1 | CC#C[C@@]1(O)CC[C@@]2(CC)c3ccc(O)cc3CC[C@@H]2C1 | 8.25 | 7.05 | 6.24 | 6.38 | 5.59 | 7.85 | 
2 | CC#C[C@@]1(O)CC[C@@]2(CO)c3ccc(O)cc3CC[C@@H]2C1 | < 6.00 |  |  |  |  |  | 
3 | CC#C[C@@]1(O)CC[C@@]2(CCO)c3ccc(O)cc3CC[C@@H]2C1 | < 6.00 |  |  |  |  |  | 
4 | CC#C[C@@]1(O)CC[C@@]2(CC)c3ccc(OCc4ccncc4)cc3CC[C@@H]2C1 | 8.52 | 6.17 | 5.46 |  |  | 7.51 | 
5 | CC#C[C@@]1(O)CC[C@@]2(CC)c3ccc(OCc4cccnc4C)cc3CC[C@@H]2C1 | 8.64 | < 5.00 | < 5.00 | 6.06 |  | 8.20 | 
6 | CC#C[C@]1(O)C[C@H]2CCc3cc(O)ccc3[C@]2(CC)C[C@@H]1O | 7.46 | < 5.00 | < 5.00 | < 5.00 | < 5.00 | 7.20 | 
7 | CC#C[C@]1(O)C[C@H]2CCc3cc(O)ccc3[C@]2(CC)[C@H](O)C1 | 6.44 | < 5.00 | < 5.00 | < 5.00 |  |  | 
8 | CC[C@@]12CC[C@](O)(c3ccccc3)C[C@H]1CCc1cc(O)ccc12 | 7.68 |  |  |  |  | < 5.30 | 
9 | CC[C@@]12C[C@H](O)[C@H](c3ccccc3)C[C@H]1CCc1cc(O)ccc12 | 8.89 |  |  |  |  | 5.96 | 
10 | CC#C[C@@]1(O)CC[C@@]2(/C=C/C)c3ccc(O)cc3CC[C@@H]2C1 | 8.46 |  |  |  |  | < 5.30 | 
11 | CC[C@@]12C[C@H](O)[C@](O)(c3ccccc3)C[C@H]1CCc1cc(OCc3cccnc3C)ccc12 | 8.82 | < 5.00 | < 5.00 | < 5.00 | < 6.00 | 7.42 | 
12 | CC[C@@]12C[C@@H](O)[C@](O)(c3ccccc3)C[C@H]1CCc1cc(O)ccc12 | 8.42 |  |  |  |  | 5.30 | 
13 | CC[C@@]12CC[C@](O)(c3ccccc3)C[C@H]1CCc1cc(OCc3cccnc3C)ccc12 | 8.22 |  |  |  |  | 5.82 | 
14 | CC#C[C@@]1(O)CC[C@@]2(CCC)c3ccc(O)cc3CC[C@@H]2C1 | 8.82 |  |  |  |  | < 5.30 | 
15 | CC[C@@]12C[C@H](O)[C@](O)(c3ccccc3)C[C@H]1CCc1cc(O)ccc12 | 8.60 | 5.47 | 6.18 | < 5.00 | 6.12 | 6.85 | 
16 | CC#C[C@@]1(O)CC[C@@]2(C)c3ccc(O)cc3CC[C@@H]2C1 | 7.77 |  |  |  |  | < 5.30 | 
17 | CC#C[C@]1(O)C[C@H]2CCc3cc(OCc4cccnc4C)ccc3[C@]2(CC)C[C@@H]1O | 8.48 | < 5.00 | < 5.00 | < 5.00 | < 5.00 | 7.82 | 
18 | C=CCC12CC[C@](O)(C#CC)C[C@H]1CCc1cc(O)ccc12 (single isomer, unassigned) | 8.21 | 7.03 | 6.60 | < 6.00 | 5.96 | 7.85 | 7.47
